Reference: patent publication US10093695B2, “Sterol derivative, preparation method therefor and use thereof” (Beijing Peking University WBL Biotech Co., Ltd., priority 2012, dated 2018)

What was measured:
[1] = system: human mononuclear lymphoma cells THP1; test: In-vitro anti-lymphoma activity, MTT cell growth inhibition, THP1; format: cell-based; conditions: THP-1, human mononuclear lymphoma cells THP1, 72 hours
Description: (§1) Inoculatecancer cells in the logarithmic phase in each well of a 96-well culture plate (2×10^4 cells/well); add the drugs until the final concentrations of the drugs are 500, 250, 125, 62.5, 31.25, 15.625 and 7.8125 μg/mL, after culturing the cancer cells for 72 hours in a cell incubator with a CO2 concentration of 5%, add 10 μL of MTT to each well, incubate the cancer cells at 37° C. in darkness for 4 hours, remove the culture solution, add 150 μL of Dimethyl Sulfoxide (DMSO) or acidified isopropyl alcohol, after oscillating for 5 minutes, measure the Optical Density (OD) value at a wavelength of 570 nm; repeat the steps above for three times; set a blank control group; the cell lines use the same culture medium, which is a RPMI1640 culture medium containing 10% of FBS and 1% of double-antibody (penicillin and streptomycin).
(§2) 3. Calculation Formula of Cell Viability Cell viability=(experimental group OD value/control group OD value)×100%.
FIG. 13 is a curve of inhibitory effect of a compound with Structural Formula (II) prepared in the first embodiment on cell growth of human mononuclear lymphoma cells THP1. […]

[2] = system: mouse lymphoma cells YAC-1; test: In-vitro anti-lymphoma activity, MTT cell growth inhibition, YAC-1; format: cell-based; conditions: mouse lymphoma cells YAC-1, 72 hours
Description: as §1, §2
FIG. 12 is a curve of inhibitory effect of a compound with Structural Formula (II) prepared in the first embodiment on cell growth of mouse lymphoma cells YAC-1.

[3] = system: mouse sarcoma cell line S180; test: In-vitro anti-cancer activity, MTT cell growth inhibition, S180; format: cell-based; conditions: S-180, mouse sarcoma cell line S180, 72 hours
Description: as §1, §2
FIG. 11 is a curve of inhibitory effect of a compound with Structural Formula (II) prepared in the first embodiment on cell growth of mouse sarcoma cell line S180.

[4] = system: mouse hepatoma cell line HepG2; test: In-vitro anti-hepatoma activity, MTT cell growth inhibition, HepG2; format: cell-based; conditions: mouse hepatoma cell line HepG2, 72 hours
Description: as §1, §2
FIG. 10 is curve of inhibitory effect of a compound with Structural Formula (II) prepared in the first embodiment on cell growth of […] hepatoma cell line HepG2. […]

[5] = system: mouse hepatoma cell line H22; test: In-vitro anti-hepatoma activity, MTT cell growth inhibition, H22; format: cell-based; conditions: mouse hepatoma cell line H22, 72 hours, read-out: half maximal inhibitory concentration (IC50) value
Description: as §1, §2
FIG. 9 is a curve of inhibitory effect of a compound with Structural Formula (II) prepared in the first embodiment on cell growth of mouse hepatoma cell line H22. […]

[6] = system: human tissue lymphoma cells U937; test: In-vitro anti-lymphoma activity, MTT cell growth inhibition, U937; format: cell-based; conditions: U-937, human tissue lymphoma cells U937, 72 hours
Description: as §1, §2

HMG-CoA reductase = target: T1, HMG-CoA reductase (Rattus norvegicus, UniProt P51639); test: HMG-CoA reductase inhibitory activity experiment (OD340 decrease, rat liver microsomes); format: biochemical; conditions: for Slope: decreasing speed of OD340 within 5 minutes, 37° C., blank control slope 15.6
T1 construct: take out a male rat liver, after washing the male rat liver with a KESD buffer solution; from tissue; host or cells: male rat liver microsomes
T1 sequence (P51639 1-887): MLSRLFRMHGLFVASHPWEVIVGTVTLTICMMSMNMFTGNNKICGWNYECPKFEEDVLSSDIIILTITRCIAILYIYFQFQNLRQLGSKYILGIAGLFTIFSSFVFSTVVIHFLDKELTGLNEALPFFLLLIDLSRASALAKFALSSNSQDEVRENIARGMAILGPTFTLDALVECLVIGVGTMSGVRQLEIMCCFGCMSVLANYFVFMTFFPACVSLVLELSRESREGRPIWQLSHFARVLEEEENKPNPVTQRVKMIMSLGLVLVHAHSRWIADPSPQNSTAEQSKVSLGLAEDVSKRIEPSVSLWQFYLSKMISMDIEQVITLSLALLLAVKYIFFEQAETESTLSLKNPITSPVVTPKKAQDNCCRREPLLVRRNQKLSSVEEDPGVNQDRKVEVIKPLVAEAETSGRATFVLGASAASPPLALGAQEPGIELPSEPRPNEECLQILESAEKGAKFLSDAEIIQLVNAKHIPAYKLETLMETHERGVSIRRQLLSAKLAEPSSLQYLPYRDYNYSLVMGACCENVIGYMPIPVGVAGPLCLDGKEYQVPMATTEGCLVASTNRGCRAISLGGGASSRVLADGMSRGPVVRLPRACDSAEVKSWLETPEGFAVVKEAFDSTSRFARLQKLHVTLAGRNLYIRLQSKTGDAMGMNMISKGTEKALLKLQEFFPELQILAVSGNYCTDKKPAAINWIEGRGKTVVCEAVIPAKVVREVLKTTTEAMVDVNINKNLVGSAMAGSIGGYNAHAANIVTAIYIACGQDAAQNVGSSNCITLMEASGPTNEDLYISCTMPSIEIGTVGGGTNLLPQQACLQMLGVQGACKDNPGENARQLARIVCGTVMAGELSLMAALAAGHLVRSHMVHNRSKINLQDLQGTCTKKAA
Description: Rat liver microsomes (HMG-CoA reductase) that may be commercially available or prepared with reference to the following method: take out a male rat liver, after washing the male rat liver with a KESD buffer solution, perform 1200 g centrifugation for 15 minutes, take the supernatant, after performing 105000 g centrifugation again for 90 minutes twice, collect centrifugation sediments, add 8.3% glycerol to the centrifugation sediments, heating for 1 hour with a 37° C. warm bath, purify coarse rat liver microsomes with saturated ammonium sulfate, and collect 35-50% of the purified part. The obtained purified part may be stored in a refrigerator at −80° C.
Dissolve 5.0 mg of the compound with Structural Formula (II) prepared in the first embodiment, Compound 4 or Compound 5, and 2.0 mg of lovastatin with 1 mL of a 75% ethanol solution, respectively;
the total volume of measurement system is 250 μL and the concentrations of the constituents are: potassium chloride 200 mM, potassium dihydrogen phosphate 160 mM, ethylenediaminetetraacetic acid 4 mM and dithiothreitol 10 mM; the concentrations of two substrates NADPH and HMG-CoA are respectively 200 μM and 50 μM, pH6.8, enzyme 30 μL.
Add an ethanol solution with 5 μL of the compound prepared by the first embodiment or an ethanol solution of Compound 4 or an ethanol solution of Compound 5 to a test group, add 5 μL of a lovastatin ethanol solution to a positive control group; add 5 μL of 75% ethanol to a blank control group; detect dynamic change of OD340 on a Versamax microplate reader at 37° C., and evaluate the HMG-CoA reductase activity level by detecting the decreasing speed (represented by a slope value) of OD340 within 5 minutes to further evaluate the enzyme inhibitory activity level, the result is as shown in Table 1.

[7] = final concentration in the system 100 μg/mL
[8] = final concentration in the system 40 μg/mL

Compound: C[C@@H](C(O)C1OC2C[C@@H]3[C@](C)(CC[C@H]4[C@@]35C=CC3(CC(O)CC[C@]43C)OO5)[C@H]2[C@@]1(C)O)C(C)(C)O (stereo partly shown) [Compound with Structural Formula (II), 5,8-epidioxy-16,22-epoxy-ergosta-6-en-3,20,23,25-tetrol]
- IC50 [1]: ~400 µg/mL
- IC50 [2]: ~350 µg/mL
- IC50 [3]: ~460 µg/mL
- IC50 [4]: ~400 µg/mL
- IC50 [5]: ~200 µg/mL
- IC50 [6]: ~320 µg/mL
- Slope (HMG-CoA reductase; [7]): 10.7
- Inhibitory rate (%) (HMG-CoA reductase; [7]): 31.4%

Compound: CC[C@H](C)C(=O)O[C@H]1C[C@@H](C)C=C2C=C[C@H](C)[C@H](CC[C@@H]3C[C@@H](O)CC(=O)O3)[C@H]21 [Lovastatin, lovastatin, reference compound]
- Slope (HMG-CoA reductase; [8]): 9.0
- Inhibitory rate (%) (HMG-CoA reductase; [8]): 42.3%
